Laboratory results reported in US11051515B2, “3-acyl-benzamides and their use as herbicides” (Bayer Aktiengesellschaft, priority 2017, dated 2021).

Tests used:
ALOMY [1] = assay: Pre-emergence action against ALOMY; assay type: in vivo, Alopecurus myosuroides; conditions: Alopecurus myosuroides, 504 h; dosage 320 g/ha; pre-emergence; scored visually after 3 weeks vs untreated controls; 100% = plants have died, 0% = like control plants; read-out: Pre-emergence action against ALOMY (herbicidal activity in percent)
How it was run: (§1)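 Seeds sown in sandy loam in wood-fiber pots and covered with soil. Greenhouse growth; visual damage scored after 3 weeks versus untreated controls (100% = dead, 0% = like control).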

AVEFA [2] = assay: Pre-emergence action against AVEFA; assay type: in vivo, Avena fatua; conditions: Avena fatua, 504 h, dosage 320 g/ha, scored visually after 3 weeks vs untreated controls, read-out: Pre-emergence action against AVEFA (herbicidal activity)
How it was run: as §1

CYPES [3] = assay: Pre-emergence action against CYPES; assay type: in vivo, Cyperus esculentus; conditions: Cyperus esculentus, 504 h; pre-emergence, dosage 320 g/ha, scored visually after 3 weeks vs untreated controls; read-out: Pre-emergence action against CYPES (herbicidal activity)
How it was run: as §1

ECHCG [4] = assay: Pre-emergence action against ECHCG; assay type: in vivo, Echinochloa crus-galli; conditions: Echinochloa crus-galli, 504 h; pre-emergence, dosage 320 g/ha, scored visually after 3 weeks vs untreated controls; read-out: Pre-emergence action against ECHCG (herbicidal activity)
How it was run: as §1

LOLMU [5] = assay: Pre-emergence action against LOLMU; assay type: in vivo, Lolium multiflorum; conditions: Lolium multiflorum, 504 h, dosage 320 g/ha, scored visually after 3 weeks vs untreated controls, read-out: Pre-emergence action against LOLMU (herbicidal activity)
How it was run: as §1

SETVI [6] = assay: Pre-emergence action against SETVI; assay type: in vivo, Setaria viridis; conditions: Setaria viridis, 504 h; pre-emergence, dosage 320 g/ha, scored visually after 3 weeks vs untreated controls; read-out: SETVI (Table B8, pre-emergence herbicidal activity)
How it was run: as §1

ABUTH [7] = assay: Pre-emergence action against ABUTH; assay type: in vivo, Abutilon theophrasti; conditions: Abutilon theophrasti, 504 h; pre-emergence, dosage 320 g/ha, scored visually after 3 weeks vs untreated controls; read-out: Pre-emergence action against ABUTH (herbicidal activity)
How it was run: as §1

AMARE [8] = assay: Pre-emergence action against AMARE; assay type: in vivo, Amaranthus retroflexus; conditions: Amaranthus retroflexus, 504 h; pre-emergence, dosage 320 g/ha, scored visually after 3 weeks vs untreated controls; read-out: Pre-emergence action against AMARE (herbicidal activity)
How it was run: as §1

MATIN [9] = assay: Pre-emergence action against MATIN; assay type: in vivo, Matricaria inodora; conditions: Tripleurospermum inodorum, 504 h; Dosage 320 g/ha, pre-emergence
How it was run: as §1

PHBPU [10] = assay: Pre-emergence action against PHBPU; assay type: in vivo, Pharbitis purpurea; conditions: Ipomoea purpurea, 504 h; Dosage 320 g/ha, pre-emergence
How it was run: as §1

POLCO [11] = assay: Pre-emergence action against POLCO; assay type: in vivo, Polygonum convolvulus; conditions: Fallopia convolvulus, 504 h; Dosage 320 g/ha, pre-emergence
How it was run: as §1

STEME [12] = assay: Pre-emergence action against STEME; assay type: in vivo, Stellaria media; conditions: Stellaria media, 504 h; Dosage 320 g/ha, pre-emergence
How it was run: as §1

VERPE [13] = assay: Pre-emergence action against VERPE; assay type: in vivo, Veronica persica; conditions: Veronica persica, 504 h; Dosage 320 g/ha, pre-emergence
How it was run: as §1

ALOMY [14] = assay: Post-emergence action against ALOMY; assay type: in vivo, Alopecurus myosuroides; conditions: Alopecurus myosuroides, 504 h; Dosage 80 g/ha, post-emergence
How it was run: (§2)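 Weeds grown in sandy loam in greenhouse, treated at one-leaf stage (2–3 weeks after sowing) with WP or EC formulations sprayed as aqueous suspension/emulsion at 600 to […] water with 0.2% wetting agent. Visual rating after about 3 weeks versus untreated controls, as % herbicidal action (100% = plants dead, 0% = like control).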

CYPES [15] = assay: Post-emergence action against CYPES; assay type: in vivo, Cyperus esculentus; conditions: Cyperus esculentus, 504 h; post-emergence, dosage 80 g/ha, visual assessment about 3 weeks after treatment vs untreated controls; read-out: Post-emergence action against CYPES (herbicidal action in percent)
How it was run: as §2

ECHCG [16] = assay: Post-emergence action against ECHCG; assay type: in vivo, Echinochloa crus-galli; conditions: Echinochloa crus-galli, 504 h; post-emergence, dosage 80 g/ha, visual assessment about 3 weeks after treatment vs untreated controls; read-out: Post-emergence action against ECHCG (herbicidal action in percent)
How it was run: as §2

LOLMU [17] = assay: Post-emergence action against LOLMU; assay type: in vivo, Lolium multiflorum; conditions: Lolium multiflorum, 504 h, dosage 80 g/ha, visual assessment about 3 weeks after treatment vs untreated controls, read-out: Post-emergence action against LOLMU (herbicidal action in percent)
Procedure: Seeds of monocotyledonous and dicotyledonous weed and crop plants are laid out in sandy loam soil in wood-fiber pots, covered with soil and cultivated in a greenhouse under good growth conditions. 2 to 3 weeks after sowing, the test plants are treated at the one-leaf stage. The compounds of the invention, formulated in the form of wettable powders (WP) or as emulsion concentrates (EC), are then sprayed onto the green parts of the plants in the form of an aqueous suspension or emulsion at a water application rate equating to […], with addition of 0.2% wetting agent. After the test plants have been left to stand in the greenhouse under optimal growth conditions for about 3 weeks, the action of the preparations is assessed visually in comparison to untreated controls (herbicidal action in percent (%): 100% activity=the plants have died, 0% activity=like control plants). […] At the same time, inventive compounds leave Gramineae crops such as barley, wheat, rye, millet/Sorghum, corn or rice virtually undamaged when applied post-emergence, even at high active ingredient dosages. In addition, some substances are also harmless to dicotyledonous crops such as soya, cotton, oilseed rape, sugar beet or potatoes. Some of the compounds according to the invention have high selectivity and are therefore suitable for controlling unwanted vegetation in agricultural crops by the post-emergence method. The data of Tables B18 to B34 below illustrate, in an exemplary manner, the […] herbicidal action of the compounds according to the invention, the herbicidal activity being stated in percent.

SETVI [18] = assay: Post-emergence action against SETVI; assay type: in vivo, Setaria viridis; conditions: Setaria viridis, 504 h; post-emergence, dosage 80 g/ha, visual assessment about 3 weeks after treatment vs untreated controls; read-out: Post-emergence action against SETVI (herbicidal action in percent)
How it was run: as §2

ABUTH [19] = assay: Post-emergence action against ABUTH; assay type: in vivo, Abutilon theophrasti; conditions: Abutilon theophrasti, 504 h; post-emergence, dosage 80 g/ha, visual assessment about 3 weeks after treatment vs untreated controls; read-out: Post-emergence action against ABUTH (herbicidal action in percent)
How it was run: as §2

AMARE [20] = assay: Post-emergence action against AMARE; assay type: in vivo, Amaranthus retroflexus; conditions: Amaranthus retroflexus, 504 h; post-emergence, dosage 80 g/ha, visual assessment about 3 weeks after treatment vs untreated controls; read-out: Post-emergence action against AMARE (herbicidal action in percent)
How it was run: as §2

MATIN [21] = assay: Post-emergence action against MATIN; assay type: in vivo, Matricaria inodora; conditions: Tripleurospermum inodorum, 504 h; post-emergence, dosage 80 g/ha, visual assessment about 3 weeks after treatment vs untreated controls; read-out: Post-emergence action against MATIN (herbicidal action in percent)
How it was run: as §2

PHBPU [22] = assay: Post-emergence action against PHBPU; assay type: in vivo, Pharbitis purpurea; conditions: Ipomoea purpurea, 504 h; post-emergence, dosage 80 g/ha
How it was run: as §2

POLCO [23] = assay: Post-emergence action against POLCO; assay type: in vivo, Polygonum convolvulus; conditions: Fallopia convolvulus, 504 h; post-emergence, dosage 80 g/ha
How it was run: as §2

STEME [24] = assay: Post-emergence action against STEME; assay type: in vivo, Stellaria media; conditions: Stellaria media, 504 h; post-emergence, dosage 80 g/ha
How it was run: as §2

VIOTR [25] = assay: Post-emergence action against VIOTR; assay type: in vivo, Viola tricolor; conditions: Viola tricolor, 504 h; post-emergence, dosage 80 g/ha
How it was run: as §2

VERPE [26] = assay: Post-emergence action against VERPE; assay type: in vivo, Veronica persica; conditions: Veronica persica, 504 h, dosage 80 g/ha
How it was run: as §2

VIOTR [27] = assay: Pre-emergence action against VIOTR; assay type: in vivo, Viola tricolor; conditions: Viola tricolor, 504 h; Dosage 320 g/ha, pre-emergence
How it was run: as §1

AVEFA [28] = assay: Post-emergence action against AVEFA; assay type: in vivo, Avena fatua; conditions: Avena fatua, 504 h; post-emergence, dosage 80 g/ha, visual assessment about 3 weeks after treatment vs untreated controls; read-out: Post-emergence action against AVEFA (herbicidal action in percent)
How it was run: as §2

SMILES | pest or weed control at 320 g/ha (ALOMY [1]) [%] | pest or weed control at 320 g/ha (AVEFA [2]) [%] | pest or weed control at 320 g/ha (ECHCG [4]) [%] | pest or weed control at 320 g/ha (LOLMU [5]) [%] | pest or weed control at 320 g/ha (SETVI [6]) [%] | pest or weed control at 320 g/ha (ABUTH [7]) [%] | pest or weed control at 320 g/ha (AMARE [8]) [%] | pest or weed control at 320 g/ha (MATIN [9]) [%] | pest or weed control at 320 g/ha (POLCO [11]) [%] | pest or weed control at 320 g/ha (STEME [12]) [%] | pest or weed control at 320 g/ha (VERPE [13]) [%] | pest or weed control at 80 g/ha (ALOMY [14]) [%] | pest or weed control at 80 g/ha (ECHCG [16]) [%] | pest or weed control at 80 g/ha (LOLMU [17]) [%] | pest or weed control at 80 g/ha (SETVI [18]) [%] | pest or weed control at 80 g/ha (ABUTH [19]) [%] | pest or weed control at 80 g/ha (AMARE [20]) [%] | pest or weed control at 80 g/ha (MATIN [21]) [%] | pest or weed control at 80 g/ha (PHBPU [22]) [%] | pest or weed control at 80 g/ha (STEME [24]) [%] | other results
CCC(=O)c1c(Cl)ccc(C(=O)Nc2nnnn2C)c1Cl [1-115] | 100 | 100 | 100 | 100 | 90 | 100 | 100 | 100 | 80 | 100 | 100 | 90 | 90 | 90 | 90 | 90 | 90 | 100 | 90 | 100 | pest or weed control at 320 g/ha (CYPES [3]): 100%; pest or weed control at 320 g/ha (PHBPU [10]): 90%; pest or weed control at 80 g/ha (CYPES [15]): 90%; pest or weed control at 80 g/ha (POLCO [23]): 100%; pest or weed control at 80 g/ha (VIOTR [25]): 100%; pest or weed control at 80 g/ha (VERPE [26]): 100%
Cn1nnnc1NC(=O)c1ccc(Cl)c(C(=O)C2CC2)c1Cl [1-116] | 100 | 100 | 100 | 100 | 100 | 90 | 100 | 100 | 90 | 90 | 100 | 90 | 90 | 100 | 100 | 90 | 90 | 90 | 90 | 100 | pest or weed control at 320 g/ha (VIOTR [27]): 100%; pest or weed control at 80 g/ha (AVEFA [28]): 100%; pest or weed control at 80 g/ha (VIOTR [25]): 90%
